Reference: patent US20260335299A1, “SUBSTITUTED OXOISOINDOLINYL PIPERIDINE-2,6-DIONE COMPOUND AS ANTICANCER AGENT” (BRISTOL-MYERS SQUIBB COMPANY, priority 2023, published 2026)

Key:
IKZF1 Ikaros [1] = biological target: T1, IKZF1 Ikaros (Homo sapiens, UniProt Q13422+Q96SW2); experiment: Jurkat Cellular Degradation Assay (Ikaros); assay type: cell-based; set-up: endogenous in cells; host or cells: Jurkat cells; conditions: Jurkat cells, 72 h
Method: Jurkat cells were plated at 80,000 cells/well in 40 μL RPMI+10% FBS in a 384-well cell culture plate prior to using acoustic dispensing technology for adding a compound of interest. Cell cultures were incubated for 72 h at 37° C. and 5% CO2. In order to facilitate analysis, cell cultures were spun down at 200 rpm for 5 min and the supernatant was discarded. After shaking the plate to dislodge the cell pellet, cells were resuspended in 50 μL of Fixation Buffer (eBioscience FoxP3 buffer set 00-5523-00) for 60 min at room temperature. After centrifuging and discarding the supernatant, cells were permeabilized with 50 μL of Permeabilization buffer (eBioscience FoxP3 buffer set 00-5523-00) for 10 min at room temperature. Following permeabilization, cells were spun down and the supernatant was replaced with 20 μL fluorescently labelled antibodies against Helios, Ikaros and Aiolos or corresponding Isotype controls in 1× Permeabilization buffer (Ikaros-Alexa488 [Biolegend, Cat #368408, 1:50], Helios-PE [CST, Cat #29360, 1:50], Aiolos-Alexa647 [Biolegend, Cat #371106 Biolegend, 1:25]) and staining reactions were incubated for 1 h at room temperature while protected from light. Subsequently, 30 μL of 1× Permeabilization buffer was added prior to centrifuging the cells and discarding the supernatant. Stained cells were resuspended in 25 μL of flow cytometry staining buffer [PBS+0.2% bovine serum albumin (BSA)] and analyzed using an Intellicyt Ique Plus flow cytometer.
(§1) Table A-1 lists the maximum observed degradation of the IKZF1 protein, IKZF2 protein, and IKZF3 protein as measured in the Jurkat Cellular Degradation assay. The results in Table A-I were rounded to two digits. In the Jurkat Cellular Degradation assay, a value of 100% indicated no detectable protein remaining or complete degradation of the protein; and a value of 0% indicated no detectable degradation of the protein by the test compound.

IKZF1 Ikaros [2] = biological target: T1, IKZF1 Ikaros; experiment: Human CD8+ T Cell Reprogramming (Degradation) Assay (Ikaros); assay type: cell-based; set-up: Cryopreserved healthy donor human peripheral blood mononuclear cells (PBMC); endogenous in cells; host or cells: CD8+ T cells within healthy donor human PBMC; conditions: CD8+ T cells, human PBMC, 24 h
Method: Cryopreserved healthy donor human peripheral blood mononuclear cells (PBMC) from healthy donors were thawed and seeded at 500,000 cells/well of 96-well round bottom plates in RPMI 1640 media (Gibco) supplemented with 10% FBS, Pen/Strep (Gibco), MEM-NEAA (Gibco), and sodium pyruvate (Gibco). Cells were treated with titrated doses of compound for 24 hours at 37° C., 5% CO2 before analyzing by flow cytometry.
For flow cytometry staining, cells were washed twice with flow cytometry staining buffer (Thermo Fisher) and incubated in Human Tru-stain Fc block (Biolegend) for 10 minutes before adding eFluor780 viability dye (Thermo Fisher) and surface marker antibody cocktail containing LD-eFluor780, CD3-BUV-395, CD4-BUV805, CD8-FITC, and CD25-BV605 for 30 minutes at 4° C. Cells were then fixed and permeabilized by incubation with permeabilization buffer (eBioscience FoxP3 buffer set 00-5523-00) for 30 minutes at 4° C. as per the kit manufacturer's instructions. Cells were washed twice with the Perm/Wash buffer supplied in the kit as per the manufacturer's instructions and incubated overnight at 4° C. with an intracellular antibody cocktail comprised of antibodies specific for the transcription factors (i.e., Foxp3-BV421, HELIOS-PE-Cy7, EOS-PE, IKAROS-PECF594, AIOLOS-AF647). Cells were washed twice with Perm/Wash buffer and resuspended in flow cytometry staining buffer (Thermo Fisher) prior to acquisition. Sample acquisition and analysis was performed using a BD LSRFortessa (BD Biosciences) flow cytometer. Single-stain controls for each fluorochrome were prepared using UltraComp eBead Compensation Beads (Thermo Fisher). Data were analyzed using FlowJo version 10 and GraphPad Prism Software.
as §1, with “D-1” for “A-1”, “protein” for “protein, IKZF2 protein,”, “Human CD8^+ T Cell Reprogramming” for “Jurkat Cellular Degradation”, “D-1” for “A-I”

[3] = concentration reducing protein level by 50% compared to DMSO alone

T1 sequence (Q13422 whole entry): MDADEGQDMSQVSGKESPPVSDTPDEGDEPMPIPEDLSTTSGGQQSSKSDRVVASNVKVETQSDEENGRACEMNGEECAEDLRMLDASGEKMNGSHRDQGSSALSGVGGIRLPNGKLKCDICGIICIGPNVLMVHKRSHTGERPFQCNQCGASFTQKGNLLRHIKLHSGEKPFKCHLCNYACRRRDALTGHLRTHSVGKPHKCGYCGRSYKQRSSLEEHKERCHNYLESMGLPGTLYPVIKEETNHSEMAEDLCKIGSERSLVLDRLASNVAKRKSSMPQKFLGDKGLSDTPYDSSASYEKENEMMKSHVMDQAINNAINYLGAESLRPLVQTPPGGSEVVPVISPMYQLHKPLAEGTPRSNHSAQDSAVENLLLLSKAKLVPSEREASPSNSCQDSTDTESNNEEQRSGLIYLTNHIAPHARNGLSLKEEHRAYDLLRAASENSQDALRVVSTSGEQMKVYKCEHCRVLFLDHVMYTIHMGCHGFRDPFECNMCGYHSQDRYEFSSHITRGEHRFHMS
T1 sequence (Q96SW2 whole entry): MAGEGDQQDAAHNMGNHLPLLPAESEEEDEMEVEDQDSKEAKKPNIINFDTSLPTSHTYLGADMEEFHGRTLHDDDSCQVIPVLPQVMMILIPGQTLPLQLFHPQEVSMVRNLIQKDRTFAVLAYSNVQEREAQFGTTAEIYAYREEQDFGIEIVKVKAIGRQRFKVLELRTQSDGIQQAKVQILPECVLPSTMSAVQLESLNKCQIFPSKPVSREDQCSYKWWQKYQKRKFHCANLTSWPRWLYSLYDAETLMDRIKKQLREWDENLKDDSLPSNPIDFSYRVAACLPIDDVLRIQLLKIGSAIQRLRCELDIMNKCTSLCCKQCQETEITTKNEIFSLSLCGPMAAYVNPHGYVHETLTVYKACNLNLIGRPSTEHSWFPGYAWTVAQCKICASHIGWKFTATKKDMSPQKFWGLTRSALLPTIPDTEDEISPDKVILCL
T1 sequence (Q16531 whole entry partner): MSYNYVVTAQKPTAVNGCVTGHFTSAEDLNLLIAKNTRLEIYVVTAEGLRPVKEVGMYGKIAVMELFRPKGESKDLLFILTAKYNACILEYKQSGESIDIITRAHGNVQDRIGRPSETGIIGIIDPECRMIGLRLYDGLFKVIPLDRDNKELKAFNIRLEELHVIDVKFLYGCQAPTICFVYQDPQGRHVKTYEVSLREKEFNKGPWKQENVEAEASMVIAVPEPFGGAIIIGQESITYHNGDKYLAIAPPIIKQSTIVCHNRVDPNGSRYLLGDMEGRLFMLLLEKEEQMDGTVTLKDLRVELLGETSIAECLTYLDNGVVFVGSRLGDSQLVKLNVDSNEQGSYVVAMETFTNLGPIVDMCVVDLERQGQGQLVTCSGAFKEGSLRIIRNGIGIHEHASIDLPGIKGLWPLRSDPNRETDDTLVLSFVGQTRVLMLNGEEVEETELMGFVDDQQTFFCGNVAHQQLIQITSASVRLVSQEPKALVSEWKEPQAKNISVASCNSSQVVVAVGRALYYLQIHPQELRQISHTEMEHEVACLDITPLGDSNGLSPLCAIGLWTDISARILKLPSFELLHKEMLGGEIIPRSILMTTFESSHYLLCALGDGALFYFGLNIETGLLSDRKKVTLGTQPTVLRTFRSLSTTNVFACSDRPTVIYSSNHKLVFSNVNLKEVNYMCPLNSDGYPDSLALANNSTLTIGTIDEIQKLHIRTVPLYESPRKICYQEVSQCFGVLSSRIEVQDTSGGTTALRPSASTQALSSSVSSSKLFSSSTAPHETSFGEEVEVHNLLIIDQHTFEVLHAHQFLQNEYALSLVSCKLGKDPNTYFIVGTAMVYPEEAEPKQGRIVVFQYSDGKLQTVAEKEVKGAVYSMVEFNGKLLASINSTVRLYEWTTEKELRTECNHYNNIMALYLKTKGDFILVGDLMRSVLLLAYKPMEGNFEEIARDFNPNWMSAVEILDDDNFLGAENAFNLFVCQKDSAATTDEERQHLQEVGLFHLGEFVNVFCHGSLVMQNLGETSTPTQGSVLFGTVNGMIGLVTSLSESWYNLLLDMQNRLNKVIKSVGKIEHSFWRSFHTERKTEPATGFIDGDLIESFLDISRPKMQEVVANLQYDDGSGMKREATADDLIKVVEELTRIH

DC50 (IKZF1 Ikaros [1]; [3]): 90.9 nM | Dmax (IKZF1 Ikaros [1]; human, read-out: IKZF1 Ikaros max % deg. observed): 69% | DC50 (IKZF1 Ikaros [2]; [3]): 35 to 44 nM | Dmax (IKZF1 Ikaros [2]; read-out: IKZF1 Ikaros Maximum Observed Degradation): 86%
Compound: Nc1nc(-c2ccc3c(c2F)CN(C2CCC(=O)NC2=O)C3=O)ccc1CN1CC(C2CCC(F)(F)CC2)C1 (stereo not shown) [Example 1, 3-(5-(6-Amino-5-((3-(4,4-difluorocyclohexyl)azetidin-1-yl)methyl)pyridin-2-yl)-4-fluoro-1-oxoisoindolin-2-yl) piperidine-2,6-dione]
